# Where two headings read alike, the source gives them in different places.
# Tests used:
# Type in all cases: cell-based
# SK-MEL-28 = assay: SRB colorimetric cell growth inhibition assay, SK-MEL-28; conditions: Homo sapiens, SK-MEL-28, MEL-28
# Outline: (§1)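 After uninterrupted treatment, cultures are fixed and stained with sulforhodamine B, and absorbance reflects cell growth and viability. Each value represents the average of triplicate wells with SD.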
# LoVo-Dox = assay: SRB colorimetric cell growth inhibition assay, LoVo-Dox (MDR); conditions: Homo sapiens, LOVO-DOX
# Outline: as §1
# LoVo = assay: SRB colorimetric cell growth inhibition assay, LoVo; conditions: Homo sapiens, LoVo
# Outline: as §1
# A-549 = assay: SRB colorimetric cell growth inhibition assay, A-549; conditions: Homo sapiens, A549, A-549
# Outline: as §1
# K-562 = assay: SRB colorimetric cell growth inhibition assay, K-562; conditions: Homo sapiens, K562, K-562
# Outline: as §1
# [1] = SRB colorimetric cell growth inhibition assay, H-MEC-1; conditions: human, H-MEC-1, cell killing (cytotoxic effect), read-out: LC50 H-MEC-1
# Excerpt: (§2) A colorimetric type of assay, using sulforhodamine B (SRB) reaction has been adapted for a quantitative measurement of cell growth and viability (following the technique described by P. A. Skehan, et al., J. Natl. Cancer Inst. 1990, 82, 1107-1112).
# (§3) This form of assay employs 96 well cell culture microplates of 9 mm diameter (T. Mosmann et al., J. of Immunological Methods 1983, 65, 55-63; G. T. Faircloth et al., J. of Tissue and Culture Methods 1988, 11, 201-205).
# (§4) Most of the cell lines are obtained from American Type Culture Collection (ATCC) derived from different human cancer types.
# (§5) The values for mean +/− SD of data from triplicate wells are calculated. Some parameters for cellular responses can be calculated: GI=growth inhibition, TGI=total growth inhibition (cytostatic effect) and LC=cell killing (cytotoxic effect).
# H-MEC-1 = assay: as above; conditions: Homo sapiens, HMEC-1, H-MEC-1
# Excerpt: as §2, §3, §4, §5
# SK-BR-3 = assay: SRB colorimetric cell growth inhibition assay, SK-BR-3; conditions: Homo sapiens, SK-BR-3, SK-BR-3
# Outline: as §1
# HT-29 = assay: SRB colorimetric cell growth inhibition assay, HT-29; conditions: Homo sapiens, HT-29, HT-29
# Outline: as §1
# DU-145 = assay: SRB colorimetric cell growth inhibition assay, DU-145; conditions: Homo sapiens, DU-145, DU-145
# Outline: as §1
# SKOV-3 = assay: SRB colorimetric cell growth inhibition assay, SKOV-3; conditions: Homo sapiens
# Excerpt: as §2, §3, §4, §5
# IGROV = assay: SRB colorimetric cell growth inhibition assay, IGROV; conditions: Homo sapiens, IGROV
# Outline: as §1
# IGROV-ET = assay: SRB colorimetric cell growth inhibition assay, IGROV-ET (ET-743 resistant); conditions: Homo sapiens, IGROV-ET
# Outline: as §1
# PANC-1 = assay: SRB colorimetric cell growth inhibition assay, PANC-1; conditions: Homo sapiens, PANC-1, PANC-1
# Outline: as §1
# LNCaP = assay: SRB colorimetric cell growth inhibition assay, LNCaP; conditions: Homo sapiens, LNCaP, LN-caP
# Outline: as §1
smiles,measurement,setting,value
COc1cc2c(cc1OC)-c1c(-c3ccc(OC(=O)[C@H](C)NC(=O)OC(C)(C)C)c(OC)c3)c3c4cc(OC)c(OC(=O)[C@H](C)NC(=O)OC(C)(C)C)cc4oc(=O)c3n1CC2 [Compound 21],GI50,"SK-MEL-28; GI=growth inhibition, read-out: GI50 MEL-28",287 nM
same,CC50,"SK-MEL-28; cell killing (cytotoxic effect), read-out: LC50 MEL-28",860 nM
same,IC (TGI),"SK-MEL-28; total growth inhibition (cytostatic effect), read-out: TGI MEL-28",497 nM
same,GI50,"LoVo-Dox; GI=growth inhibition, read-out: GI50 LOVO-DOX",4970 nM
same,CC50,"LoVo-Dox; cell killing (cytotoxic effect), read-out: LC50 LOVO-DOX",11700 nM
same,IC (TGI),"LoVo-Dox; total growth inhibition (cytostatic effect), read-out: TGI LOVO-DOX",11700 nM
same,GI50,"LoVo; GI=growth inhibition, read-out: GI50 LOVO",1950 nM
same,CC50,"LoVo; cell killing (cytotoxic effect), read-out: LC50 LOVO",11700 nM
same,IC (TGI),"LoVo; total growth inhibition (cytostatic effect), read-out: TGI LOVO",4970 nM
same,GI50,"A-549; GI=growth inhibition, read-out: GI50 A-549",1390 nM
same,CC50,"A-549; cell killing (cytotoxic effect), read-out: LC50 A-549",11700 nM
same,IC (TGI),"A-549; total growth inhibition (cytostatic effect), read-out: TGI A-549",4620 nM
same,GI50,"K-562; GI=growth inhibition, read-out: GI50 K-562",286 nM
same,CC50,"K-562; cell killing (cytotoxic effect), read-out: LC50 K-562",2390 nM
same,IC (TGI),"K-562; total growth inhibition (cytostatic effect), read-out: TGI K-562",582 nM
same,LC50 (concentration giving 50% net cell killing),[1]; H-MEC-1 cells,922 nM
same,GI50,"H-MEC-1; GI=growth inhibition, read-out: GI50 H-MEC-1",281 nM
same,IC (TGI),"H-MEC-1; total growth inhibition (cytostatic effect), read-out: TGI H-MEC-1",509 nM
same,GI50,"SK-BR-3; GI=growth inhibition, read-out: GI50 SK-BR-3",342 nM
same,CC50,"SK-BR-3; cell killing (cytotoxic effect), read-out: LC50 SK-BR-3",11700 nM
same,IC (TGI),"SK-BR-3; total growth inhibition (cytostatic effect), read-out: TGI SK-BR-3",599 nM
same,GI50,"HT-29; GI=growth inhibition, read-out: GI50 HT-29",512 nM
same,CC50,"HT-29; cell killing (cytotoxic effect), read-out: LC50 HT-29",11700 nM
same,IC (TGI),"HT-29; total growth inhibition (cytostatic effect), read-out: TGI HT-29",11700 nM
same,GI50,"DU-145; GI=growth inhibition, read-out: GI50 DU-145",353 nM
same,CC50,"DU-145; cell killing (cytotoxic effect), read-out: LC50 DU-145",11700 nM
same,IC (TGI),"DU-145; total growth inhibition (cytostatic effect), read-out: TGI DU-145",703 nM
same,GI50,"SKOV-3; SK-OV-3, SKOV-3, GI=growth inhibition, read-out: GI50 SKOV-3",849 nM
same,LC50 (concentration causing 50% net cell killing),"SKOV-3; SK-OV-3, SKOV-3, cell killing (cytotoxic effect), read-out: LC50 SKOV-3",11700 nM
same,IC (TGI),"SKOV-3; SK-OV-3, SKOV-3, total growth inhibition (cytostatic effect), read-out: TGI SKOV-3",11700 nM
same,GI50,"IGROV; GI=growth inhibition, read-out: GI50 IGROV",315 nM
same,CC50,"IGROV; cell killing (cytotoxic effect), read-out: LC50 IGROV",9020 nM
same,IC (TGI),"IGROV; total growth inhibition (cytostatic effect), read-out: TGI IGROV",664 nM
same,GI50,"IGROV-ET; GI=growth inhibition, read-out: GI50 IGROV-ET",901 nM
same,CC50,"IGROV-ET; cell killing (cytotoxic effect), read-out: LC50 IGROV-ET",11700 nM
same,IC (TGI),"IGROV-ET; total growth inhibition (cytostatic effect), read-out: TGI IGROV-ET",5180 nM
same,GI50,"PANC-1; GI=growth inhibition, read-out: GI50 PANC-1",514 nM
same,CC50,"PANC-1; cell killing (cytotoxic effect), read-out: LC50 PANC-1",11700 nM
same,IC (TGI),"PANC-1; total growth inhibition (cytostatic effect), read-out: TGI PANC-1",1810 nM
same,GI50,"LNCaP; GI=growth inhibition, read-out: GI50 LN-caP",190 nM
same,CC50,"LNCaP; cell killing (cytotoxic effect), read-out: LC50 LN-caP",775 nM
same,IC (TGI),"LNCaP; total growth inhibition (cytostatic effect), read-out: TGI LN-caP",383 nM
COc1cc(-c2c3n(c4c(=O)oc5cc(OC(=O)[C@@H](N)C[S][Fm])c(OC)cc5c24)CCc2c-3cc(OC)c(OC)c2OC(=O)[C@@H](N)C[S][Fm])ccc1OC(=O)[C@@H](N)C[S][Fm] [Compound 23],LC50 (concentration giving 50% net cell killing),[1],2870 nM

# — patent US7396837B2, “Antitumoral analogs of lamellarins” (Pharma Mar, S.A.U., priority 2002, dated 2008)
